Measured values from ChEMBL document CHEMBL1201862, “PubChem BioAssay data set” (2004).
The source made the active and inactive calls.

Experiments:
Cytochrome P450 2C19 = Cytochrome P450 2C19 (Homo sapiens, UniProt P33261); test: Cytochrome panel assay with activity outcomes. Panel member name: p450-cyp2c19 Compounds with AC50 equal or less than 10 uM are considered active; assay type: functional; conditions: read-out: AC50
Protein skinhead-1 = biological target: T1, Protein skinhead-1 (Caenorhabditis elegans, UniProt P34707); assay type: functional
T1 sequence (P34707 whole entry): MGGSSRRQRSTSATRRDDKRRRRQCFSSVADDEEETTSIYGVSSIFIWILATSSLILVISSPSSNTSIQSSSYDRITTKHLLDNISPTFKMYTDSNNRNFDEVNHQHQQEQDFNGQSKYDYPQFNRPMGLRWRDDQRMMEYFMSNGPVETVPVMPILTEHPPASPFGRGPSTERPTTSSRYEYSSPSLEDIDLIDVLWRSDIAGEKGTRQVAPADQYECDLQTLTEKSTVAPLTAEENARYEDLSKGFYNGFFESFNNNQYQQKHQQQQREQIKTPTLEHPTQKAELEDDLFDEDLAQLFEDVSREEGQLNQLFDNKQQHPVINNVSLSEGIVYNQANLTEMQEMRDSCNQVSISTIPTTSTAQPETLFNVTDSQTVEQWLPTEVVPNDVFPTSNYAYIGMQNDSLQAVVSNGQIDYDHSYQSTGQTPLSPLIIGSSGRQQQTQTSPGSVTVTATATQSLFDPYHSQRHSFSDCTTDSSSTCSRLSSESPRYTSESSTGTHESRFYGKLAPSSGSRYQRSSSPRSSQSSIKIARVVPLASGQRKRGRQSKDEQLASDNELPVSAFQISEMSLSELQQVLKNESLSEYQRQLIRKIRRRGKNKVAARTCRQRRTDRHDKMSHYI

[1] = viability of uninfected HEp-2 cells – cell-based, HTS, cytotoxicity control for RSV inhibitor project, dose response (AID 2410); assay type: functional; conditions: human respiratory syncytial virus
[2] = Trypanosoma cruzi growth suppression in host cells – NIH3T3 host cells, beta-gal luminescence, confirmation (AID 2044); assay type: functional, cell-based;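 further: intracellular parasites grown in NIH/3T3 mouse fibroblasts as host cells; luminescent beta-galactosidase reporter signal from transgenic T. cruzi replicating inside host cells; inhibitors lower the luminescence signal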
[3] = microbe, parasite or virus in culture; assay type: functional; conditions: Mycobacterium tuberculosis
[4] = NIH3T3 cell viability loss – ATP luminescence, mouse fibroblasts, counter-screen, dose response (AID 2010); assay type: functional, cell-based;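 further: cells exposed to compound for about 90 hours before reading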
[5] = biological target: Heat shock protein HSP 90-alpha (Homo sapiens, UniProt P07900); assay type: functional, organism-based
[6] = reduction of Shn3 3'UTR-driven luciferase in osteoblasts – cell-based, Clone20 osteoblasts, firefly luciferase, cherry-picked, dose response (AID 624132); assay type: functional;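 further: firefly luciferase luminescence from reporter carrying the Shn3 3'UTR in osteoblasts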
[7] = loss of viability in HepG2 cells – cell-based, CellTiter-Glo, cherry-picked, cytotoxicity control for Shn3 inhibitor project, dose response (AID 624134); assay type: functional
[8] = non-specific 3'UTR reporter inhibition in Clone20-Shn3RL – cell-based, Renilla luciferase, cherry-picked, counter-screen for Shn3 inhibitor project, dose response (AID 624133); assay type: functional
Estrogen receptor beta = Estrogen receptor beta (Homo sapiens, UniProt Q92731);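 further: recombinant ER-beta bound to coactivator SRC1 peptide in presence of estradiol agonist; inhibitors block coactivator peptide binding and lower the FRET signal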
Chain of Estrogen receptor beta (Q92731 whole entry): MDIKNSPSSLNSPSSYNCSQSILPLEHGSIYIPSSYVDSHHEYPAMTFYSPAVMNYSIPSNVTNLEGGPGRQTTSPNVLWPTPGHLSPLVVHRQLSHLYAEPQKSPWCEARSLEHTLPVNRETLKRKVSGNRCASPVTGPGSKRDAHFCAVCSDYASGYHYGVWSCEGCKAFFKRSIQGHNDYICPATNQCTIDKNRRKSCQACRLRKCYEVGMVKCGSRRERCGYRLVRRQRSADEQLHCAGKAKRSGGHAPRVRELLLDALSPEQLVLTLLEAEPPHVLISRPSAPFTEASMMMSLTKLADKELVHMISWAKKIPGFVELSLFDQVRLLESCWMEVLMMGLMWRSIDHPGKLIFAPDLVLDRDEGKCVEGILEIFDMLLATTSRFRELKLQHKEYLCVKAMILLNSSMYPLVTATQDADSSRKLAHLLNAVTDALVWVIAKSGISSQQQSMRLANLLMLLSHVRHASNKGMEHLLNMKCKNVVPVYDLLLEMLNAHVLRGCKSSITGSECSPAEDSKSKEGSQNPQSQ

[9] = viability loss in THP-1 monocytes – THP-1 cells, cytotoxicity control for Vif-APOBEC3G degradation inhibitor project, dose response (AID 1117359); assay type: functional; conditions: THP-1
[10] = NIH-3T3 fibroblast cytotoxicity, dose response, cytotoxicity control, cell-based, fluorescence, Alamar Blue, secondary assay (AID 2327); assay type: functional;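 further: NIH-3T3 mouse fibroblasts cultured with fluconazole at 8 µg/mL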
[11] = fluconazole-exposed Candida albicans growth modulators – fluorescence, retest, confirmation (AID 2467); assay type: functional, cell-based
Leucine aminopeptidase = biological target: T2, Leucine aminopeptidase (Plasmodium falciparum 3D7, UniProt Q8IL11); test: P. falciparum M17LAP inhibitors, primary screen, biochemical, fluorogenic H-Leu-NHMec substrate, 1536-well (AID 1619); assay type: functional
T2 sequence (Q8IL11 whole entry): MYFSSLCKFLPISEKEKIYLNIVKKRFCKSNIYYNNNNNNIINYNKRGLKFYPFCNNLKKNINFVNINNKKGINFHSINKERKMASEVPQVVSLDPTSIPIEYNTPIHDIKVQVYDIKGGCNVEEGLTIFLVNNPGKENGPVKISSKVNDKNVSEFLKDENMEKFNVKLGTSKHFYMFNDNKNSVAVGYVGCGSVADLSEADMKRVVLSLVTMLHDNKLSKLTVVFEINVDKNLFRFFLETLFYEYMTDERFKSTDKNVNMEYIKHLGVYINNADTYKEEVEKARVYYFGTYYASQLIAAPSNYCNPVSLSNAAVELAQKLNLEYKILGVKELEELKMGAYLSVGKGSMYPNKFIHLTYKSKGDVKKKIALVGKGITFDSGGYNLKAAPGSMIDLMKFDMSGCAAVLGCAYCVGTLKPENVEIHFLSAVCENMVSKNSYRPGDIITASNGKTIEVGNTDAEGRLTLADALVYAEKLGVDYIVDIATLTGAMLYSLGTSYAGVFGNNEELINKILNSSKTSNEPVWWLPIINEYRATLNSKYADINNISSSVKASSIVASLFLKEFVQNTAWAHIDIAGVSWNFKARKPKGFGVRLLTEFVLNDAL

Beta-galactosidase = Beta-galactosidase (Escherichia coli, UniProt Q8VNN2); test: PubChem AID 485352; assay type: functional
Chain of Beta-galactosidase (Q8VNN2 whole entry): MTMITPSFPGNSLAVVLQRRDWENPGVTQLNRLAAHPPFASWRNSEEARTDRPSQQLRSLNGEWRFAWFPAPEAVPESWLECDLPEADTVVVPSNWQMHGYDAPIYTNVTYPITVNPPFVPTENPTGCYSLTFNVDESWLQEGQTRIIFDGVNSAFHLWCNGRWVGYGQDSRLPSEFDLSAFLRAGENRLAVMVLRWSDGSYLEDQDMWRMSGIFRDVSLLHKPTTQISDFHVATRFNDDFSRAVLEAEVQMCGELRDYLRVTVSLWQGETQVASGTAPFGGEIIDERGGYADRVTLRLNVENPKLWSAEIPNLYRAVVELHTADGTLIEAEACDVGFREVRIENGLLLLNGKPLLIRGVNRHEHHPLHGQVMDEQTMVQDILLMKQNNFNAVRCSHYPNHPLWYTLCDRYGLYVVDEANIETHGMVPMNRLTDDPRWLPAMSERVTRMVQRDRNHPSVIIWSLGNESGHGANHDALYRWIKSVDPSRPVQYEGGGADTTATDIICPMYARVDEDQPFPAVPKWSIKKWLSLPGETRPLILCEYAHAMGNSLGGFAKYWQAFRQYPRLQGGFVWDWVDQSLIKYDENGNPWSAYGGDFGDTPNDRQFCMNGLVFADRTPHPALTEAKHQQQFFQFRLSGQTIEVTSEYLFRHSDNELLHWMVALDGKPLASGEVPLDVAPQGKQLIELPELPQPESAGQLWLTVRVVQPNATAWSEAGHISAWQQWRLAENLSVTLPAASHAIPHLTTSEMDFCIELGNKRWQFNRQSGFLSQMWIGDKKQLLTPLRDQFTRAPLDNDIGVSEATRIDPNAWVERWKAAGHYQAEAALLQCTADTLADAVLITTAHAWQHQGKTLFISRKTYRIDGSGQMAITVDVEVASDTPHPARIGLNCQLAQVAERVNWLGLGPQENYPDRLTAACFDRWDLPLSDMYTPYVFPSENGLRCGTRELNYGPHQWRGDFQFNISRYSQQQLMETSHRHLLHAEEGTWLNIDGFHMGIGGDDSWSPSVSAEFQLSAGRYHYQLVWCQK

[12] = biological target: T3, Type-1 angiotensin II receptor (Homo sapiens, UniProt P30556); test: antagonism of angiotensin II type 1 receptor – cell-based, uHTS hits, selectivity assay for APJ receptor antagonist project, dose response (AID 463214); assay type: functional;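 further: antagonist potency against angiotensin II stimulated AT1 response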
T3 sequence (P30556 whole entry): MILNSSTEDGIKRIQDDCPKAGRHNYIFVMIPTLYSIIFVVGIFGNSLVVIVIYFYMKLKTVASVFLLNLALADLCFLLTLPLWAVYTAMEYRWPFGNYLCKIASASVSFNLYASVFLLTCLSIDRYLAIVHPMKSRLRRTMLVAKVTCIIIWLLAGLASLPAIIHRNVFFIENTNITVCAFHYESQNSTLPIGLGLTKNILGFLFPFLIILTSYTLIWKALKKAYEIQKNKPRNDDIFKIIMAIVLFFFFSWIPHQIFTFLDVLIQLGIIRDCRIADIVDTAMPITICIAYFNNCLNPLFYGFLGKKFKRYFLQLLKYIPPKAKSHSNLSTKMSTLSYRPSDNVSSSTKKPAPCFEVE

[13] = biological target: FAD-linked sulfhydryl oxidase ALR (Homo sapiens, UniProt P55789); test: ALR-catalysed DTT oxidation blockers – biochemical, H2O2 detection, luminescence, cherry-pick, dose response (AID 493248)
Chain of FAD-linked sulfhydryl oxidase ALR (P55789 whole entry): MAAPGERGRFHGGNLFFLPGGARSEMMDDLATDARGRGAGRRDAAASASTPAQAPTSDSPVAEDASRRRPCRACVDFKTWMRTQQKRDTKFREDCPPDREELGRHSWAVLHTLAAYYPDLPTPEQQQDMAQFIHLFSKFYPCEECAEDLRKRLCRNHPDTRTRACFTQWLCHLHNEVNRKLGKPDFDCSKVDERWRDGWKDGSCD

[14] = biological target: T4, Rac GTPase-activating protein 1 (Homo sapiens, UniProt Q9H0H5); test: blockers of MgcRacGAP-driven Rac1 GTP hydrolysis – biochemical, ADP Hunter fluorescence, primary and confirmatory, confirmation (AID 624330); assay type: functional
T4 sequence (Q9H0H5 whole entry): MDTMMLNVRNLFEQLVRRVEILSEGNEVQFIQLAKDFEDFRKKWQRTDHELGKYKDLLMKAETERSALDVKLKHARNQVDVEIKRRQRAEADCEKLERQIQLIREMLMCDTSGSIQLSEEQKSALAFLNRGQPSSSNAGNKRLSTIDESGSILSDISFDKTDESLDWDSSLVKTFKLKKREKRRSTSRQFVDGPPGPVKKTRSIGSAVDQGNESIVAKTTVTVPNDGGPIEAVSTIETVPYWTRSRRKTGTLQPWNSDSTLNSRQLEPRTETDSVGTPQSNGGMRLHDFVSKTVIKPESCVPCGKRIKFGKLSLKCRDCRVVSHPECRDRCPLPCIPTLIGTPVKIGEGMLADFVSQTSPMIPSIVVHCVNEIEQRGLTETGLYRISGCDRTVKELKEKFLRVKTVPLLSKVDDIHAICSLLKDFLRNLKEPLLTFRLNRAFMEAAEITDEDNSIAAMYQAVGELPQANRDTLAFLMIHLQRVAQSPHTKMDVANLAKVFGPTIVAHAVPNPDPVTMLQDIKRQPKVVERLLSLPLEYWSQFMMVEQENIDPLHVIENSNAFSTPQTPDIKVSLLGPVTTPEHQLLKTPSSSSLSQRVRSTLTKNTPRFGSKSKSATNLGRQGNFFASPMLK

[15] = intracellular Trypanosoma cruzi inhibitors in host cells – cell-based, plate reader, cherry-pick samples, set 3, dose response (AID 651818); assay type: functional;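 further: compounds incubated with infected cells for about four days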
Paired box protein Pax-8 = Paired box protein Pax-8 (Homo sapiens, UniProt Q06710); test: PAX8 transcriptional activity inhibition in RMG-I – RMG-I cells, luciferase, cherry-pick, dose response (AID 687027); assay type: functional, cell-based;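 further: luciferase reporter driven by Pax8 target thyroperoxidase promoter measured by SteadyGlo luminescence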
Chain of Paired box protein Pax-8 (Q06710 whole entry): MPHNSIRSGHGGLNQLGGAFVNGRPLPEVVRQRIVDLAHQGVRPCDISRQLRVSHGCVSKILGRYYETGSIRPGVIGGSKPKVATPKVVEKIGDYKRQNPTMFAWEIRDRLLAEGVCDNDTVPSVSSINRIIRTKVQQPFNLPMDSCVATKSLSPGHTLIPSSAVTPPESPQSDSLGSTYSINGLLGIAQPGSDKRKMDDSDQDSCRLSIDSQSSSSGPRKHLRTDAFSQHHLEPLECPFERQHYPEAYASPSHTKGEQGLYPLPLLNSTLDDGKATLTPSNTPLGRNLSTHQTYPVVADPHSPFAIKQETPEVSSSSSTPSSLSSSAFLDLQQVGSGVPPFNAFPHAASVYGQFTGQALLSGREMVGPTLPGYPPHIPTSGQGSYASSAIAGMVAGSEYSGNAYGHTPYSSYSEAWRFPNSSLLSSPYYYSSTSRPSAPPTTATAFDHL

[16] = OVCAR8 cell viability loss – plate reader, dry powder samples, PAX8 project, dose response (AID 743197); assay type: functional, cell-based; conditions: OVCAR-8
[17] = OVCAR-3 cell viability loss – plate reader, dry powder samples, PAX8 inhibitor project, dose response (AID 743044); assay type: functional, cell-based
[18] = viability of PTEN-deleted HCT116 cells – cell-based, HCT116 PTEN knockout, dose response (AID 1047); assay type: functional;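 further: HCT116 colon tumor cells with PTEN knocked out; cells exposed to compound for 60 hours before readout; potency for loss of cell viability measured by luminescence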
[19] = viability of HCT116 lacking mutant beta-catenin – cell-based, human colon tumor, dose response (AID 1045); assay type: functional;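 further: HCT116 colon tumor cells with beta catenin knocked out; cells exposed to compound for 60 hours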

Chain of Cytochrome P450 2C19 (P33261 whole entry): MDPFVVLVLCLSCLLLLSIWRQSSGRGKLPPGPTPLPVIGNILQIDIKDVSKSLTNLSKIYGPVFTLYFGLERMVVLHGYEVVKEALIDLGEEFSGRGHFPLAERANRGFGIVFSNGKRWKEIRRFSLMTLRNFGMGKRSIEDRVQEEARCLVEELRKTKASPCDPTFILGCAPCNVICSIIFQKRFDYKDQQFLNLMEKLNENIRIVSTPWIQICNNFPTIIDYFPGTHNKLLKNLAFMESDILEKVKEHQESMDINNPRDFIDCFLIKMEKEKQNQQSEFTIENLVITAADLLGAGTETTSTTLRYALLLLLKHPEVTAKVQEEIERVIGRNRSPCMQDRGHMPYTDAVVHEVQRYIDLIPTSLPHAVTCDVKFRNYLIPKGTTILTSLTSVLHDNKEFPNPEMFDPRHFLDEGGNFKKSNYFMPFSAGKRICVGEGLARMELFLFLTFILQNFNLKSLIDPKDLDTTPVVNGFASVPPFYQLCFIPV

## CCOc1ccc2nc(NC(=O)c3ccc(S(=O)(=O)N4CCOCC4)cc3)sc2c1
Cytochrome P450 2C19
  AC50: 2.82 µM (inconclusive)
Protein skinhead-1
  IC50: > 100 µM (inactive)

## O=C(Nc1ccc(SC(F)F)cc1)c1ccccc1F
[1]
  CC50: > 50 µM (active)
Protein skinhead-1
  IC50: 23.1 µM (active)

## CC1(c2cc([N+](=O)[O-])cc([N+](=O)[O-])c2)CC(C)(C)N(C(=O)c2ccccc2)c2ccccc21 (centres undefined)
[2]
  EC50: 0.17 µM (active)
[3]
  CC50: > 40 µM (active)
[4]
  EC50: 10.7 µM (active)

## Cc1cccc2cc(CN(Cc3nnnn3C3CCCCC3)C3CCCC3)c3nnnn3c12
[5]
  AC50: 2.18 µM (active)

## COc1ccc(-n2nnnc2-c2cnc(N3CCCC3)nc2C(F)(F)F)cc1
[6]
  AC50: 4.75 µM (active)
[7]
  AC50: 50.8 µM (active)
[8]
  AC50: 4.77 µM (active)

## c1ccc(-c2nc(-c3ccncc3)no2)cc1
Protein skinhead-1
  IC50: 16.3 µM (active)

## O=C(NCc1ccc2c(c1)OCO2)c1ccc(Br)cc1
[5]
  AC50: 4.38 µM (active)

## C=CCn1c(SCc2cc(C(=O)OC)c(C)o2)nnc1-c1ccncc1
Estrogen receptor beta
  IC50: > 50 µM (not active)

## CCCCc1ccc(NC(=O)CC(C)(C)C)cc1
[9]
  CC50: > 40 µM (active)

## COC(=O)c1ccc(C(=O)OC)c(NC(=O)CSc2cccc[n+]2[O-])c1
[10]
  EC50: > 160 µM (inconclusive)
[11]
  EC50: 1.34 µM (active)
[3]
  CC50: > 40 µM (active)

## COc1ccccc1NC(=O)c1ccc(CN2CCOCC2)cc1
Protein skinhead-1
  IC50: > 100 µM (inactive)

## CCN(CC)CC(=O)c1ccc(-c2ccccc2)cc1
Leucine aminopeptidase
  IC50: 60.2 µM (active)
Beta-galactosidase
  EC50: > 40 µM (inactive)
[12]
  IC50: 18.8 µM (active)

## O=S(=O)(c1ccc(N2CCCC2)cc1)C(F)(F)F
Protein skinhead-1
  IC50: > 100 µM (inactive)

## Nc1cc([N+](=O)[O-])ccc1Nc1ccc(O)cc1
[3]
  CC50: > 40 µM (active)
[13]
  AC50: 0.269 µM (active)
[14]
  IC50: 38.2 µM (active)

## Cc1sc(NC(=O)C2=COCCO2)nc1-c1ccc(Cl)cc1
Protein skinhead-1
  IC50: > 100 µM (inactive)

## C[C@H]1CN([C@@H](C)CO)C(=O)Cc2cc(NC(=O)Nc3cccc4ccccc34)ccc2O[C@@H]1CN(C)Cc1ccc(C(F)(F)F)cc1
[15]
  AC50: 2.3 µM (active)

## Cc1cc(C(=O)Nc2cccc3c2O[C@@H](CN(C)Cc2ccc(C(=O)Nc4ccccc4N)cc2)[C@@H](C)CN([C@H](C)CO)C3=O)n(C)n1
[15]
  AC50: 2.45 µM (active)

## C[C@@H]1CN([C@@H](C)CO)C(=O)Cc2cc(NC(=O)Nc3ccc(C(F)(F)F)cc3)ccc2O[C@@H]1CN(C)Cc1ccc(Cl)c(Cl)c1
[15]
  AC50: 1.85 µM (active)

## C[C@H](CO)N1C[C@H](C)[C@H](CN(C)S(=O)(=O)c2cccs2)Oc2c(NC(=O)c3cnccn3)cccc2C1=O
[15]
  AC50: 2.44 µM (active)

## C[C@@H]1CN([C@H](C)CO)C(=O)c2cccc(NC(=O)Nc3ccc(C(F)(F)F)cc3)c2O[C@@H]1CN(C)Cc1ccc(Cl)c(Cl)c1
[15]
  AC50: 2.26 µM (active)

## C[C@H](CO)N1C[C@H](C)[C@H](CN(C)Cc2ccc(Oc3ccccc3)cc2)Oc2c(NC(=O)CCCCCC(=O)Nc3ccccc3N)cccc2C1=O
[15]
  AC50: 2.36 µM (active)

## C[C@H]1CN([C@@H](C)CO)C(=O)c2cc(NS(=O)(=O)c3ccc(Cl)cc3)ccc2O[C@H]1CN(C)Cc1ccc(Cl)c(Cl)c1
Paired box protein Pax-8
  AC50: 7.5 µM (active)
[16]
  AC50: > 70 µM (inactive)

## C[C@@H]1CN([C@H](C)CO)C(=O)c2cc(NC(=O)Nc3ccc(C(F)(F)F)cc3)ccc2O[C@@H](C)CCCCO[C@H]1CN(C)C(=O)NC1CCCCC1
Paired box protein Pax-8
  AC50: 2.8 µM (active)
[17]
  AC50: 27.4 µM (active)
[16]
  AC50: 47.2 µM (active)

## C[C@H](CO)N1C[C@H](C)[C@@H](CN(C)C(=O)C2CCCCC2)OCCCC[C@H](C)Oc2ccc(NS(=O)(=O)c3ccc(Cl)cc3)cc2C1=O
Paired box protein Pax-8
  AC50: 8.51 µM (active)
[17]
  AC50: 24.4 µM (active)

## C/C(=C\C(=S)Nc1ccccc1)Nc1ccc2ccccc2c1
[3]
  CC50: 36.2 µM (active)

## CC(C)N(C(=O)CO/N=C/c1cccc([N+](=O)[O-])c1)C(C)C
[9]
  CC50: > 40 µM (active)

## CCNc1nc(NC(C)(C)C)nc(N2CCCC2)n1
[18]
  EC50: 25 µM (active)
[19]
  EC50: 32.9 µM (active)
